Test results published in patent US7109380B2, “Cyclopentenedione antifungal compounds and methods for their use” (The University of Mississippi, priority 2004, dated 2006).
In brackets after ≈: the same amount, converted by molar mass.

Test system: Azole-susceptible and Azole-resistant Candida albicans Strains
Assay: Antifungal activity against azole-susceptible and azole-resistant patient isolates
Assay type: cell-based
Conditions: for IC50 / IC80: Candida albicans; for Activity against fluconazole-resistant C. albicans strains (in words): isolates from patients during fluconazole therapy
Protocol: Antimicrobial Assay. Susceptibility testing is performed using a modified version of the National Committee for Clinical Laboratory Standards methods. M intracelluare is tested using a modified method of Franzblau, et al. Seventy-two to 96 h prior to the assay, the M intracellulare subculture is prepared by resuspending cells from the surface of the slant in Middlebrook 7H9 broth with OADC enrichment and incubating at 37° C. and 10% CO2. On the day of the assay, prepared samples (dissolved in DMSO) are serially-diluted using 20%/0.9% DMSO/saline and transferred in duplicate to 96 well flat bottom microplates. Candida spp. and C. neoformans inocula are prepared by picking 1–3 colonies from agar plates and resuspending in ˜5 mL 0.9% sterile saline. The absorption of 10011 of the saline suspensions and the M. intracellulare subculture at 630 nm using the EL-340 Biokinetics Reader (Bio-Tek Instruments, Vermont) is compared either the 0.5 McFarland standard of 0.03 (Mi) or standard curves. The microorganisms are diluted in broth [RPMI 1640/2% dextrose/MOPS at pH 7.3 (Cellgro) for Candida spp., Sabouraud Dextrose for C. neoformans, and 5% Alamar Blue™(BioSource International, Camarillo, Calif.) in Middlebrook 7H9 broth with OADC enrichment, pH=7.3 for M. intracellulare to afford final target inocula of: Candida spp.: 1.0×10^4, C. neoformans: 1.0×10^5, and M. intracellulare: 2.0×10^6 after addition to the samples. The microbial inocula are added to the samples to achieve a final volume of 200 μl. Growth (saline only), solvent and blank (media only) controls are included on each test plate. Drug controls [Ciprofloxacin (ICN Biomedicals, Ohio) for bacteria and Amphotericin B (ICN Biomedicals, Ohio) for fungi] are included in each assay. All organisms are read at either 630 nm using the EL-340 Biokinetics Reader (Bio-Tek Instruments, Vermont) or 544ex/590em, (M. intracellulare) using the Polarstar Galaxy Plate Reader (BMG LabTechnologies, Germany) prior to and after incubation: Candida spp. at 37° C. for 18–24 h, C. neoformans at 30° C. for 72 h, and M. intracellulare at 37° C. and 10% CO2 for 72 h. Percent growth is calculated and plotted versus test concentration to afford the IC50 (sample concentration that affords 50% growth of the organism) and the minimum inhibitory concentration (MIC) and minimum fungicidal or bactericidal concentrations (MFC/MBCs). The MIC is defined as the lowest test concentration that allows no detectable growth (for M. intracellulare no color change from blue to pink). Minimum fungicidal or bactericidal concentrations are determined by removing 5 μl from each clear (or blue) well, transferring to agar and incubating as previously mentioned. The MFC/MBC is defined as the lowest test concentration that kills 100% of the organism (allows no growth on agar).
The bioassay method is a modified version of the National Committee for Clinical Laboratory Standards methods, and is same as the one described in example 8 by which the biological data of compounds 1 and 2 (Tables 1 and 2) were obtained, except that the pH of the culture media for Candida spp. was changed from 7.3 to 4.5.

[1] = Isolate 1, azole-susceptible strain (first listing, r6)
[2] = Isolate 1, azole-susceptible strain (second listing, r10)
[3] = Isolate 2, azole-resistant strain
[4] = Isolate 5, azole-resistant strain
[5] = Isolate 8, azole-resistant strain
[6] = Isolate 17, azole-resistant strain

SMILES: COC(/C=C/c1ccccc1)=C1\C(=O)C=C(C)C1=O [Compound 1, coruscanone A]
- IC50 [1]: 0.6 µg/mL (≈ 2.36 µM)
- IC80 [1]: 1 µg/mL (≈ 3.93 µM)
- IC50 [2]: 0.45 µg/mL (≈ 1.77 µM)
- IC80 [2]: 0.6 µg/mL (≈ 2.36 µM)
- IC50 [3]: 0.9 µg/mL (≈ 3.54 µM)
- IC80 [3]: 1 µg/mL (≈ 3.93 µM)
- IC50 [4]: 0.4 µg/mL (≈ 1.57 µM)
- IC80 [4]: 0.6 µg/mL (≈ 2.36 µM)
- IC50 [5]: 0.9 µg/mL (≈ 3.54 µM)
- IC80 [5]: 1 µg/mL (≈ 3.93 µM)
- IC50 [6]: 0.3 µg/mL (≈ 1.18 µM)
- IC80 [6]: 0.9 µg/mL (≈ 3.54 µM)
- IC95 [1]: 1.50 µg/mL (≈ 5.9 µM)
- IC95 [2]: 0.75 µg/mL (≈ 2.95 µM)
- IC95 [3]: 1.50 µg/mL (≈ 5.9 µM)
- IC95 [4]: 0.70 µg/mL (≈ 2.75 µM)
- IC95 [5]: 1.50 µg/mL (≈ 5.9 µM)
- IC95 (Isolate 17, azole-resistant strain, highest test concentration 100 μg/mL): 1.50 µg/mL (≈ 5.9 µM)
- Activity against fluconazole-resistant C. albicans strains (in words): retains equivalent activity relative to the susceptible strains
- Activity against fluconazole-resistant C. albicans strains (in words) (listed as coruscanone A): inhibits
